PubChem BioAssay (NCI)
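Dose response: 5 concentrations. Exposure: 48 h. Format: 96-well plates. Endpoint: linear interpolation; highest concentration if not reached. Abbreviation: GI50, concentration required for 50% inhibition of growth. TGI: total growth inhibition.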

Key:
Assay in all cases: DTP human tumour cell line panel, 48 h
786-0 renal = system: 786-0 renal
A498 renal = system: A498 renal
A549 NSCLC = system: A549 NSCLC
ACHN renal = system: ACHN renal
BT-549 breast = system: BT-549 breast
CAKI-1 renal = system: CAKI-1 renal
CCRF-CEM leukemia = system: CCRF-CEM leukemia
COLO 205 colon = system: COLO 205 colon
DU-145 prostate = system: DU-145 prostate
EKVX NSCLC = system: EKVX NSCLC
HCC-2998 colon = system: HCC-2998 colon
HCT-116 colon = system: HCT-116 colon
HCT-15 colon = system: HCT-15 colon
HL-60(TB) leukemia = system: HL-60(TB) leukemia
HOP-62 NSCLC = system: HOP-62 NSCLC
HOP-92 NSCLC = system: HOP-92 NSCLC
HS 578T breast = system: HS 578T breast
HT29 colon = system: HT29 colon
IGROV1 ovarian = system: IGROV1 ovarian
K-562 leukemia = system: K-562 leukemia
KM12 colon = system: KM12 colon
LOX IMVI melanoma = system: LOX IMVI melanoma
M14 melanoma = system: M14 melanoma
MALME-3M melanoma = system: MALME-3M melanoma
MCF7 breast = system: MCF7 breast
MDA-MB-231 breast = system: MDA-MB-231 breast
MDA-MB-435 = system: MDA-MB-435
MOLT-4 leukemia = system: MOLT-4 leukemia

N#Cc1cnc2ccc(-c3cnc(N)nc3)cc2c1N1CCc2cc(F)c(Cl)cc21
GI50 (786-0 renal): 425 nM
TGI (786-0 renal): 3950 nM
GI50 (A498 renal): 147 nM
TGI (A498 renal): 552 nM
GI50 (A549 NSCLC): 479 nM
TGI (A549 NSCLC): 13200 nM
GI50 (ACHN renal): 489 nM
TGI (ACHN renal): 11900 nM
GI50 (BT-549 breast): 239 nM
TGI (BT-549 breast): 1800 nM
GI50 (CAKI-1 renal): 268 nM
TGI (CAKI-1 renal): 2800 nM
GI50 (CCRF-CEM leukemia): 486 nM
TGI (CCRF-CEM leukemia): > 100000 nM
GI50 (COLO 205 colon): 795 nM
TGI (COLO 205 colon): 2850 nM
GI50 (DU-145 prostate): 510 nM
TGI (DU-145 prostate): > 39500 nM
GI50 (EKVX NSCLC): 496 nM
TGI (EKVX NSCLC): 3950 nM
GI50 (HCC-2998 colon): 572 nM
TGI (HCC-2998 colon): 7500 nM
GI50 (HCT-116 colon): 917 nM
TGI (HCT-116 colon): 2640 nM
GI50 (HCT-15 colon): 385 nM
TGI (HCT-15 colon): 11500 nM
GI50 (HL-60(TB) leukemia): 705 nM
TGI (HL-60(TB) leukemia): 4380 nM
GI50 (HOP-62 NSCLC): 434 nM
TGI (HOP-62 NSCLC): > 21700 nM
GI50 (HOP-92 NSCLC): 201 nM
TGI (HOP-92 NSCLC): 1180 nM
GI50 (HS 578T breast): 186 nM
TGI (HS 578T breast): 774 nM
GI50 (HT29 colon): 587 nM
TGI (HT29 colon): 9740 nM
GI50 (IGROV1 ovarian): 235 nM
TGI (IGROV1 ovarian): 1260 nM
GI50 (K-562 leukemia): 997 nM
TGI (K-562 leukemia): > 100000 nM
GI50 (KM12 colon): 773 nM
TGI (KM12 colon): 4180 nM
GI50 (LOX IMVI melanoma): 355 nM
TGI (LOX IMVI melanoma): 7970 nM
GI50 (M14 melanoma): 612 nM
TGI (M14 melanoma): 8510 nM
GI50 (MALME-3M melanoma): 366 nM
TGI (MALME-3M melanoma): 2960 nM
GI50 (MCF7 breast): 300 nM
TGI (MCF7 breast): 14000 nM
GI50 (MDA-MB-231 breast): 450 nM
TGI (MDA-MB-231 breast): 7930 nM
GI50 (MDA-MB-435): 495 nM
TGI (MDA-MB-435): 3560 nM
GI50 (MOLT-4 leukemia): 577 nM
TGI (MOLT-4 leukemia): > 64600 nM
